# Reference: patent US6358948B1 (American Home Products Corporation, priority 1999, dated 2002)
# pIC50: −log10 of the molar value. “And” between values parts separate entries of the source, which are not always exact repeats. Identical values can stand only once. Like-named read-outs stand apart in the source and are kept apart here.
# Key:
# human PR = biological target: T1, human PR (Homo sapiens, UniProt P06401); experiment: PRE-luciferase assay in CV-1 cells; format: cell-based; conditions: read-out: hPR CV-1 IC50
# T1 construct: expressed in transfected cells; host or cells: CV-1 cells (electroporated with pLEM-hPR-B and pGL3-2xPRE-luciferase)
# T1 sequence (P06401 1-933): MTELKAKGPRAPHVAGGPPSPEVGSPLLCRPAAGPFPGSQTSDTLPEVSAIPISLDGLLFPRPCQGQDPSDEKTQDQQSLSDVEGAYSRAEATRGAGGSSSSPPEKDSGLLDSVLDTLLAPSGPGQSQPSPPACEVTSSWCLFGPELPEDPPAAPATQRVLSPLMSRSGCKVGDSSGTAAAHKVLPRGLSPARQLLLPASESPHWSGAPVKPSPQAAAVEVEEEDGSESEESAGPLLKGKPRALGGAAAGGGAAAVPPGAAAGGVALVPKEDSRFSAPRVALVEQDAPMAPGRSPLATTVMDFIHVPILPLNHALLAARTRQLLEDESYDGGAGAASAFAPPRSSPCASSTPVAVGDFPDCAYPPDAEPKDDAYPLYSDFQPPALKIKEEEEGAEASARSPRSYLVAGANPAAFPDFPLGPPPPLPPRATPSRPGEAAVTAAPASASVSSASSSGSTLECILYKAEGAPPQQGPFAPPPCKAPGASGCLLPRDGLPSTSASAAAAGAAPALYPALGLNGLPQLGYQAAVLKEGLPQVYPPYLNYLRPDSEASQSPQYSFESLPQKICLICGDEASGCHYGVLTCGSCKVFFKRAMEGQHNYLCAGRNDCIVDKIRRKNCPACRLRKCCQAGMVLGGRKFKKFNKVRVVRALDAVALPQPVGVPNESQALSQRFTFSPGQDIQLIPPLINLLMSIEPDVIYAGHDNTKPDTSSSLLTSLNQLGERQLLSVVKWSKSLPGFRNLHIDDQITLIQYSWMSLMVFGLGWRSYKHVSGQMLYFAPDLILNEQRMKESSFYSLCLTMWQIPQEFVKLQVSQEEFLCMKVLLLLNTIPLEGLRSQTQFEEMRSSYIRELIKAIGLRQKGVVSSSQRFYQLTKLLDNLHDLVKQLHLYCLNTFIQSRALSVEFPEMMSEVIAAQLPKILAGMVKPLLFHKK
# [1] = system: rat uterine decidualization; experiment: Rat decidualization assay; format: in vivo; conditions: for EC50: s.c., half-maximal increase in decidual response (uterine wet weight), ovariectomized rats, individual studies
Structure (SMILES),melting point,further results
"CC1OC(C)(C)Nc2ccc(-c3cccc([N+](=O)[O-])c3)cc21 (stereo not drawn) [Compound 3, 6-(3-Nitro-phenyl)-2,2,4,-trimethyl-1,4-dihydro-2H-benzo[d][1,3]oxazine]",–,"pIC50 (human PR; CV-1 cells co-transfected with human PR and PRE-luciferase, decrease in 3 nM progesterone induced PRE-luciferase activity): 5.78"
"CC1Nc2ccc(-c3cc(F)cc(C#N)c3)cc2C(C)(C)O1 (stereo not drawn) [Example 14, 3-Fluoro-5-(2,4,4-trimethyl-1,4-dihydro-2H-3,1-benzoxazin-6-yl)benzonitrile]",163 to 164 °C,–
"CC1Nc2ccc(-c3ccc(F)c(Cl)c3)cc2C(C)(C)O1 (stereo not drawn) [Example 29, 6-(3-Chloro-4-fluorophenyl)-2,4,4-trimethyl-1,4-dihydro-2H-3,1-benzoxazine]",173 to 175 °C,–
"CC1OC(C)(C)c2cc(-c3ccc(C#N)n3C(=O)OC(C)(C)C)ccc2N1C(=O)OCC1c2ccccc2-c2ccccc21 (stereo not drawn) [Example 19, 9H-Fluoren-9-ylmethyl-6-[1-(tert-butoxycarbonyl)-5-cyano-1H-pyrrol-2-yl]-2,4,4-trimethyl-2H-3,1-benzoxazine-1(4H)-carboxylate]",135 to 136 °C,–
"CC1(C)OC(C(F)(F)F)Nc2ccc(-c3cc(F)cc(C#N)c3)cc21 (stereo not drawn) [Example 32, 3-[4,4-Dimethyl-2-(trifluoromethyl)-1,4-dihydro-2H-3,1-benzoxazin-6-yl]-5-fluorobenzonitrile]",102 to 103 °C,–
"CC1(C)CC(=O)Nc2ccc(-c3cccc(F)c3)cc21 [Example 40, 6-(3-Fluorophenyl)-4,4-dimethyl-3,4-dihydroquinolin-2(1H)one]",190 to 192 °C,–
"CC1(C2CC2)NC(=O)Nc2ccc(-c3cccc(Cl)c3)cc21 (stereo not drawn) [Example 9, 6-(3-Chlorophenyl)-4-cyclopropyl-4-methyl-3,4-dihydro-1H-quinazolin-2-one]",125 to 127 °C,–
"CC1(C)CC(=S)Nc2ccc(-c3cccc(F)c3)cc21 [Example 44, 6-(3-Fluorophenyl)-4,4-dimethyl-3,4-dihydroquinoline-2(1H)-thione]",209 to 211 °C,–
"CC1Nc2ccc(-c3cccc(Cl)c3)cc2C(C)(C)O1 (stereo not drawn) [Example 28, 6-(3-Chlorophenyl)-2,4,4-trimethyl-1,4-dihydro-2H-3,1-benzoxazine]",144 to 146 °C,–
"CC1OC(C)(C)c2cc(-c3ccc(C#N)n3C)ccc2N1C(=O)OCC1c2ccccc2-c2ccccc21 (stereo not drawn) [Example 21, 9H-Fluoren-9-ylmethyl 6-(5-cyano-1-methyl-1H-pyrrol-2-yl)-2,4,4-trimethyl-2H-3,1-benzoxazine-1(4H)-carboxylate]",63 to 64 °C,–
"CC1(C)CC(=O)Nc2ccc(-c3cccc(Cl)c3)cc21 [Example 11, 6-(3-Chloro-phenyl)-4,4-dimethyl-3,4-dihydro-1H-quinolin-2-one]",211 to 215 °C,–
"CC1Nc2ccc(-c3coc(C#N)c3)cc2C(C)(C)O1 (stereo not drawn) [Example 31, 4-(2,4,4-Trimethyl-1,4-dihydro-2H-3,1-benzoxazin-6-yl)2-furonitrile]",116 to 118 °C,–
C#C[C@]1(O)CC[C@H]2[C@@H]3CCC4=CC(=O)CC[C@@H]4[C@H]3CC[C@@]21CC [Levonorgestrel],–,EC50 [1]: 0.08 mg/kg and 0.12 mg/kg and 0.09 mg/kg (2×)
"Cc1cc(C#N)sc1-c1ccc2c(c1)C(C)(C)OC(C(F)(F)F)N2 (stereo not drawn) [Example 38, 5-[4,4-Dimethyl-2-(trifluoromethyl)-1,4-dihydro-2H-3,1-benzoxazin-6-yl]-4-methylthiophene-2-carbonitrile]",97 to 98 °C,–
CC#C[C@]1(O)CC[C@H]2[C@@H]3CCC4=CC(=O)CCC4=C3[C@@H](c3ccc(N(C)C)cc3)C[C@@]21C [RU 486],–,"IC50 ([1]; p.o., half-maximal decrease in EC50 progesterone induced decidual response, rats): 0.21 mg/kg and 0.14 mg/kg"
"CC1Nc2ccc(-c3cccc(F)c3)cc2C(C)(C)O1 (stereo not drawn) [Example 27, 6-(3-Fluorophenyl)-2,4,4-trimethyl-1,4-dihydro-2H-3,1-benzoxazine]",139 to 140 °C,–
"CC1Nc2ccc(-c3csc(C#N)c3)cc2C2(CCCCC2)O1 (stereo not drawn) [Example 26, 4-(2-Methylspiro[2H-3,1-benzoxazine-4,1′-cyclohexane]-6-yl)2-thiophenecarbonitrile]",111 to 112 °C,–
"CC1Nc2ccc(-c3ccc(C#N)n3C)cc2C(C)(C)O1 (stereo not drawn) [Example 22, 1-Methyl-5-(2,4,4-trimethyl-1,4-dihydro-2H-3,1-benzoxazin-6-yl)-1H-pyrrole-2-carbonitrile]",195 to 196 °C,–
C#C[C@]1(O)CC[C@H]2[C@@H]3CCC4=CC(=O)CC[C@@H]4[C@H]3C(=C)C[C@@]21CC [3-Ketodesogestrel],–,EC50 [1]: 0.10 mg/kg and 0.06 mg/kg and 0.11 mg/kg
"CC1Nc2ccc(-c3ccc(F)c(C#N)c3)cc2C(C)(C)O1 (stereo not drawn) [Example 30, 2-Fluoro-5-(2,4,4-trimethyl-1,4-dihydro-2H-3,1-benzoxazin-6-yl)benzonitrile]",184 to 186 °C,–
"C[C@@H]1Nc2ccc(-c3cc(F)cc(C#N)c3)cc2[C@](C)(c2ccccc2)O1 [Example 17, 3-[(2R,4S)-2,4-Dimethyl-4-phenyl-1,4-dihydro-2H-3,1-benzoxazin-6yl]-5-fluorobenzonitrile]",128 to 129 °C,–
"CC1(C)CC(=O)Nc2ccc(-c3cc(F)cc(C#N)c3)cc21 [Example 41, 3-(4,4-Dimethyl-2-oxo-1,2,3,4-tetrahydroquinolin-6-yl)-5-fluorobenzonitrile]",249 to 250 °C,–
"Cc1cc(C#N)sc1-c1ccc2c(c1)C(C)(C)OC(C)N2 (stereo not drawn) [Example 16, 4Methyl-5-(2,4,4-trimethyl-1,4-dihydro-2H-3,1-benzoxazin-6-yl)thiophene-2-carbonitrile]",145 to 146 °C,–
"CC1(C)OC(C)(C(F)(F)F)Nc2ccc(-c3cccc(Cl)c3)cc21 (stereo not drawn) [Compound 2, 6-(3-Chloro-phenyl)-2,4,4-trimethyl-2-trifluoromethyl-1,4-dihydro-2H-benzo[d][1,3]oxazine]",–,pIC50 (human PR): 7.30
"CC1(C)CC(=S)Nc2ccc(-c3cc(F)cc(C#N)c3)cc21 [Example 46, 3-(4,4-Dimethyl-2-thioxo-1,2,3,4-tetrahydroquinolin-6-yl)-5-fluorobenzonitrile]",240 to 242 °C (dec.),–
"CC1Nc2ccc(-c3ccc(C#N)[nH]3)cc2C(C)(C)O1 (stereo not drawn) [Example 20, 5-(2,4,4-Trimethyl-1,4-dihydro-2H-3,1-benzoxazin-6-yl)-1H-pyrrole-2-carbonitrile]",201 to 202 °C,–
"CC1Nc2ccc(-c3csc(C#N)c3)cc2C(C)(C)O1 (stereo not drawn) [Example 15, 4-(2,4,4-Trimethyl-1,4-dihydro-2H-3,1-benzoxazin-6-yl)thiophene-2carbonitrile]",175 to 176 °C,–
"CC1(C)OC(C(F)(F)F)Nc2ccc(-c3cccc(Cl)c3)cc21 (stereo not drawn) [Example 39, 6-(3-Chlorophenyl)-4,4-dimethyl-2-(trifluoromethyl)-1,4-dihydro-2H-3,1-benzoxazine]",108 to 109 °C,–
"CN1C(=O)Nc2ccc(-c3cccc(Cl)c3)cc2C1(C)C1CC1 (stereo not drawn) [Example 10, 6-(3-Chlorophenyl)-4-cyclopropyl-3,4-dimethyl-3,4-dihydro-1H-quinazolin-2-one]",193 to 194 °C,–
"CC1(C)CC(=S)Nc2ccc(-c3cccc(Cl)c3)cc21 [Example 43, 6-(3-Chlorophenyl)-4,4-dimethyl-3,4dihydroquinoline-2(1H)-thione]",197 to 198 °C,–
